From patent US20230265116A1, “DEGRADATION OF (EGFR) BY CONJUGATION OF EGFR INHIBITORS WITH E3 LIGASE LIGAND AND METHODS OF USE” (BEIGENE, LTD., priority 2020, published 2023)

Legend:
[1] = target: T1, EGFR L858R/T790M/C797S (BaF3-LTC cells) (Homo sapiens, UniProt P00533, C797S/L858R/T790M); assay: EGFR degradation HTRF assay, BaF3-LTC cells; format: cell-based; settings: BaF3-LTC cells; for DC50: EGFR degradation, IC50 (DC50) from curve fit, read-out: DC50(nM) BaF3-LTC; for Dmax: maximum percentage of inhibition (degradation), read-out: Dmax (%) BaF3-LTC
T1 construct: expressed in transfected cells; host or cells: BaF3
In short: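 EGFR remaining after a 16 h, 37 °C exposure (8 doses, 5-fold steps from 10 uM final, 0.2% DMSO) was quantified by HTRF antibodies in cell lysate. Percent inhibition relative to DMSO control was fitted by four-parameter logistic to give DC50; Dmax denotes maximal degradation.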

[2] = tested on: EGFR Del19/T790M/C797S (H1975-clone #28); assay: EGFR degradation HTRF assay, H1975-clone #28 DTC cells; format: cell-based; settings: H1975 # 28 DTC cells; for DC50: EGFR degradation, IC50 (DC50) from curve fit, read-out: DC50(nM) H1975 # 28 DTC; for Dmax (%) H1975 # 28 DTC: maximum percentage of inhibition (degradation)
In short: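 Cells were dosed on day 2 with an 8-point, 5-fold dilution series starting at 10 uM final and incubated 16h at 37° C. After lysis for 1 hour, HTRF antibodies were added overnight at room temperature and the plate was read at 665/620 nm. Degradation was normalised to DMSO wells and fitted for DC50 and Dmax.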

T1 sequence (P00533 25-1210 T790M/C797S/L858R): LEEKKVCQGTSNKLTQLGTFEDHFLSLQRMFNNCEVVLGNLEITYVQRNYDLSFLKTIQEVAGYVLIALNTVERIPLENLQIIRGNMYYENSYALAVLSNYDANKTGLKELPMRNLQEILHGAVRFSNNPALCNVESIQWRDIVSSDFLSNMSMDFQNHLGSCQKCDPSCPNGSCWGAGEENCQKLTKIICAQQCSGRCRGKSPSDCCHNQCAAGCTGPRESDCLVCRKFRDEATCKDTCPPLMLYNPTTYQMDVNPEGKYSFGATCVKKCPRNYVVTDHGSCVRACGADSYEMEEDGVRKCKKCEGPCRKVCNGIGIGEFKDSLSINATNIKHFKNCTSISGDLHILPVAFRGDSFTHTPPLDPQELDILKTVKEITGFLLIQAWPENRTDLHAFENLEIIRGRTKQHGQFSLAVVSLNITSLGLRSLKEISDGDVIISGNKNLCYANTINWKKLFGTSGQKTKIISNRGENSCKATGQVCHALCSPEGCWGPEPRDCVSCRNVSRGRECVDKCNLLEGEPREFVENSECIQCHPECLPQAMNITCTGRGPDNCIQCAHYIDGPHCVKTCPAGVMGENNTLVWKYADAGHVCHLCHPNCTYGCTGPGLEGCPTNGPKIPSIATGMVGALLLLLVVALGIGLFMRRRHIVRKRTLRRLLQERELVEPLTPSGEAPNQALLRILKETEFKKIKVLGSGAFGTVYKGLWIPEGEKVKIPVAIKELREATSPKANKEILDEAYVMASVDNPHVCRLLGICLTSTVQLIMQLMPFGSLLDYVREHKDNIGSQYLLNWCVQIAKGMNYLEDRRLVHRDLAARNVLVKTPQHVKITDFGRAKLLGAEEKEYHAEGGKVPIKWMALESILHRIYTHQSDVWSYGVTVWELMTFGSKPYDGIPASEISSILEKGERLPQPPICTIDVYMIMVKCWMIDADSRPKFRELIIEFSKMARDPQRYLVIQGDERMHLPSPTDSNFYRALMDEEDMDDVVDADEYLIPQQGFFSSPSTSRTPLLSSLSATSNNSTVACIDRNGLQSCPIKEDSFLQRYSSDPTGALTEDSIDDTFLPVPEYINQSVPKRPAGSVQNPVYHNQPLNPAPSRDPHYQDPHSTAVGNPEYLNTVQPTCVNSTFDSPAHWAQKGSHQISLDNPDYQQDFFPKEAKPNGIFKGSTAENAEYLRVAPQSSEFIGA

| Structure (SMILES) | DC50 [1] [nM] | Dmax [1] [%] | DC50 [2] [nM] | Dmax (%) H1975 # 28 DTC [2] [%] |
| --- | --- | --- | --- | --- |
| CCc1ccc2c(P(C)(C)=O)c(Nc3nc(Nc4cc(CC)c(N5CCC(N6CCN(CC7CN(c8cc(F)cc9c8oc(=O)n9C8CCC(=O)NC8=O)C7)CC6)CC5)cc4OC)ncc3Br)ccc2n1 (stereo not drawn) [Example 449, 3-(7-(3-((4-(1-(4-((5-bromo-4-((5-(dimethylphosphoryl)-2-ethylquinolin-6-yl)amino)pyrimidin-2-yl)amino)-2-ethyl-5-methoxyphenyl)piperidin-4-yl)piperazin-1-yl)methyl)azetidin-1-yl)-5-fluoro-2-oxobenzo[d]oxazol-3(2H)-yl)piperidine-2,6-dione] | 2.99 | 89.9 | 0.937 | 85.59 |
| CCOc1cc(N2CCC(N3CCN(CC4CN(c5cc(F)c([C@H]6CCC(=O)NC6=O)c(F)c5)C4)CC3)CC2)c(CC)cc1Nc1ncc(Br)c(Nc2ccc3nc(CC)ccc3c2P(C)(C)=O)n1 [Example 541, (R)-3-(4-(3-((4-(1-(4-((5-bromo-4-((5-(dimethylphosphoryl)-2-ethylquinolin-6-yl)amino)pyrimidin-2-yl)amino)-5-ethoxy-2-ethylphenyl)piperidin-4-yl)piperazin-1-yl)methyl)azetidin-1-yl)2,6-difluorophenyl)piperidine-2,6-dione] | 17.8 |  | 2.08 | 88.77 |
| CCc1cc(Nc2ncc(Br)c(Nc3ccc4nc(C5CC5)ccc4c3P(C)(C)=O)n2)c(OC)cc1N1CCC(N2CCN(CCc3cc(F)c([C@H]4CCC(=O)NC4=O)c(F)c3)CC2)CC1 [Example 741, (R)-3-(4-(2-(4-(1-(4-((5-bromo-4-((2-cyclopropyl-5-(dimethylphosphoryl)quinolin-6-yl)amino)pyrimidin-2-yl)amino)-2-ethyl-5-methoxyphenyl)piperidin-4-yl)piperazin-1-yl)ethyl)-2,6-difluorophenyl)piperidine-2,6-dione] | 11.2 |  | 0.761 | 80.67 |

Stronger by DC50 [1], values ahead:

| DC50 [1] [nM] | Dmax [1] [%] | DC50 [2] [nM] | Structure (SMILES) | Dmax (%) H1975 # 28 DTC [2] [%] |
| --- | --- | --- | --- | --- |
| 2.6 | 94.3 | 0.691 | CCc1cc(Nc2ncc(Br)c(Nc3ccc4nc(C)ccc4c3P(C)(C)=O)n2)c(OC)cc1N1CCC(N2CCN(C[C@H]3CCN(c4ccc5c(c4)oc(=O)n5C4CCC(=O)NC4=O)C3)CC2)CC1 (stereo partly drawn) [Example 525, 3-(6-((R)-3-((4-(1-(4-((5-bromo-4-((5-(dimethylphosphoryl)-2-methylquinolin-6-yl)amino)pyrimidin-2-yl)amino)-2-ethyl-5-methoxyphenyl)piperidin-4-yl)piperazin-1-yl)methyl)pyrrolidin-1-yl)-2-oxobenzo[d]oxazol-3(2H)-yl)piperidine-2,6-dione] | 50.86 |
| 2.13 | 87.7 | 1.17 | CCOc1cc(N2CCC(N3CCN(CCc4ccc5c(c4)oc(=O)n5C4CCC(=O)NC4=O)CC3)CC2)c(CC)cc1Nc1ncc(Br)c(Nc2ccc3nc(C)c(F)cc3c2P(C)(C)=O)n1 (stereo not drawn) [Example 651, 3-(6-(2-(4-(1-(4-((5-bromo-4-((5-(dimethylphosphoryl)-3-fluoro-2-methylquinolin-6-yl)amino)pyrimidin-2-yl)amino)-5-ethoxy-2-ethylphenyl)piperidin-4-yl)piperazin-1-yl)ethyl)-2-oxobenzo[d]oxazol-3(2H)-yl)piperidine-2,6-dione] | 79.33 |
